Assays:
Acute toxicity test = type: in vivo, male ICR mice; conditions: mouse
Protocol: Experiment 5 [Acute toxicity test]
Ten male ICR mice weighing 25 to 34 g were used. (E)-N-cyclopropyl-3-(3-chlorophenyl)-2-butenamide suspended in 0.4% aqueous carboxymethylcellulose solution was each administered orally to mice in the amount of 0.1 ml per 10 g of mice. […] The LD50 values were more than 1 g/kg p.o.

[1] = J. Med. Chem., vol. 9 (No. 5), 675-681 (1966); cited from earlier work
[2] = test system: Anemic Decerebrate rigidity; assay: Inhibition of anemic decerebrate rigidity; type: in vivo, male Wistar rats; conditions: rat, in polyethylene glycol 400
Protocol: Experiment 2[Inhibition of Anemic Decerebrate rigidity]
The rigidity animals were prepared according to the method of Fukuda et al [Japan J. Pharmacol., vol. 24, page 810-813 (1974)].
Four male Wistar rats weighing 250 to 350 g were used for each group.
The animals were anesthetized with ethyl ether and carotid artery was ligated bilaterally. A round hole was digged in the suboccipital skeleton and the basal artery was coagulated using a bipolar electrocoagulator. The advanced rigidity occurred on the fore limb with awaking from the ethyl ether anesthesia. The drugs [A; (E)-N-cyclopropyl-3-(3-chlorophenyl)-2-butenamide, B; (E)-N-cyclopropyl-3-(3-fluorophenyl)-2-butenamide, and C; cinflumide] dissolved in polyethylene glycol 400 were each administered intravenously in the amount of 5 mg/kg or 10 mg/kg (0.1 ml per 100 g of rat) to determine the inhibition time of the rigidity.

[3] = test system: spontaneous motor activity; assay: Spontaneous motor activity test; type: in vivo, male ICR mice; conditions: mouse
Protocol: Experiment 4 [Spontaneous motor activity test]
Six male ICR mice weighing 20-30 g were used as the test animals for each group. The test drugs [A: (E)-N-cyclopropyl-3-(3 chlorophenyl)-2-butenamide and B: (E)-N-cyclopropyl-3-(3-fluorophenyl)-2-butenamide] suspended in 0.4% aqueous carboxymethylcellulose solution were each administered orally to mice in the amounts of 50, 70.7 and 100 mg/kg (0.1 ml per 10 g of mouse). The control group were administered with 0.4% aqueous carboxymethylcellulose solution only. After 15 minute, mice were placed in ANIMEX apparatus (manufactured by Muromachi Kikai K.K.) to determine the spontaneous moter activity for 30 minutes

[4] = test system: mesocephalous decerebrate rididity; assay: Inhibition test of the mesocephalous decerebrate rigidity; type: in vivo, male Wistar rats; conditions: rat
Protocol: Experiment 1 [Inhibition test of the mesocephalous decerebrate rididity]
The rigidity animals were prepared according to the method of Ono et al [Gen. Pharm., vol. 18, page 57-59 (1987)].
Four male Wistar rats weighing 250 to 350 g were used for each group. The animals were anesthetized with ethyl ether and fixed on a brain stereotaxic apparatus to break the midbrain bilaterally (APO, V-3, L ±1.5). The advanced rigidity occurred in the hind limb with awaking from the ethyl ether anesthesia. The test drugs [A; (E)-N-cyclopropyl-3-(3-chlorophenyl)-2-butenamide, B; (E)-N-cyclopropyl-3-(3-fluorophenyl)-2-butenamide and C; cinflumide] dissolved in propylene glycol were each administered intravenously in the amount of 5 mg/kg or 10 mg/kg (0.1 ml per 100 g of rat), and these test drugs suspended in 0.4% aqueous carboxymethylcellulose solution were each administered intraduodenally in the amount of 50 mg/kg (0.1 ml per 100 g of rat) to determine the inhibition time of the rigidity.

Straub tail reaction = Straub tail reaction (morphine-induced); type: in vivo, male ICR mice; conditions: mouse, morphine hydrochloride 15 mg/kg s.c.
Protocol: Experiment 3 [Straub tail reaction]
Test was carried out according to the method of Ellis et al [Neuropharmacology, vol. 13, page 211 to (1974)].
Six male ICR mice weighing 20-30 g were used as the animals for each group. The drugs [A; (E)-N-cyclopropyl-3-(3-chlorophenyl)-2-butenamide, and C; cinflumide] suspended in 0.4% aqueous carboxymethylcellulose solution were each administered orally to the animals in the amounts of 50, 70.7, 100 and 140 mg/kg (0.1 ml per 10 g of mouse). After 15 minutes, 15 mg/kg of morphine hydrochloride were administered subcutaneously. After 30 minutes, the tail-raising reaction was determined. The muscle relaxation activity was judged as positive in case where the drug produces the value of less than 45 degrees of the tail-raising's angle, and the inhibition rate was culculated.

[5] = Japanese Patent Publication No. 60-56700; among known cinnamamide derivatives; cited from earlier work
[6] = 70.7 mg/kg p.o., control of A 2116.0 ± 256.6, of B 2128.7 ± 228.0
[7] = 5 mg/kg i.v., in propylene glycol
[8] = 10 mg/kg i.v., in propylene glycol
[9] = 50 mg/kg i.d., in 0.4% aqueous carboxymethylcellulose
[10] = 50 mg/kg (head: i.v.; text: orally)
[11] = 70.7 mg/kg (head: i.v.; text: orally)
[12] = 100 mg/kg (head: i.v.; text: orally)
[13] = 140 mg/kg (head: i.v.; text: orally)

Q: Which results are given for C/C(=C\C(=O)NC1CC1)c1cccc(Cl)c1 [A, (E)-N-cyclopropyl-3-(3-chlorophenyl)-2-butenamide]?
A: death (survivals observed for 7 days) (Acute toxicity test; 1 g/kg p.o.): no death occurred; LD50 at 168 h (Acute toxicity test; in vivo, po): > 1000 mg/kg; sedative or taming action [1]: showing sedative or taming action; length of time during which the inhibition occurs (inhibition time of the rigidity) ([2]; 5 mg/kg i.v.): 9 min; length of time during which the inhibition occurs (inhibition time of the rigidity) ([2]; 10 mg/kg i.v.): 13 min; Spontaneous motor activity ([3]; 50 mg/kg p.o., control of A 2116.0 ± 256.6): 1736.0 ± 366.6 Counts/30 minutes; Spontaneous motor activity [3, 6]: 1570.2 ± 326.9 Counts/30 minutes; length of time during which the inhibition action occurs (inhibition time of the rigidity) [4, 7]: 13 min; length of time during which the inhibition action occurs (inhibition time of the rigidity) [4, 8]: 37 min; length of time during which the inhibition action occurs (inhibition time of the rigidity) [4, 9]: 36 min; inhibition rate (Straub tail reaction) (Straub tail reaction; [10]): 40%; inhibition rate (Straub tail reaction) (Straub tail reaction; [11]): 40%; inhibition rate (Straub tail reaction) (Straub tail reaction; [12]): 100%; inhibition rate (Straub tail reaction) (Straub tail reaction; [13]): 100%

Q: Which “length of time during which the inhibition occurs (inhibition time of the rigidity)” value ([2]; 5 mg/kg i.v.) does the source give for C/C(=C\C(=O)NC1CC1)c1cccc(F)c1 [B, (E)-N-cyclopropyl-3-(3-fluorophenyl)-2-butenamide] here?
A: 8 min

Q: What about the “length of time during which the inhibition occurs (inhibition time of the rigidity)” value ([2]; 10 mg/kg i.v.) of the same compound?
A: 12 min

Q: And the Spontaneous motor activity [3, 6]?
A: 2264.2 ± 506.0 Counts/30 minutes

Q: What about the Spontaneous motor activity ([3]; 100 mg/kg p.o., control of B 2128.7 ± 228.0) of the same compound?
A: 1667.8 ± 152.4 Counts/30 minutes

Q: And the “length of time during which the inhibition action occurs (inhibition time of the rigidity)” value [4, 7]?
A: 6 min

Q: And the “length of time during which the inhibition action occurs (inhibition time of the rigidity)” value [4, 8]?
A: 12 min

Q: What about the “length of time during which the inhibition action occurs (inhibition time of the rigidity)” value [4, 9] of the same compound?
A: 53 min

Q: For O=C(/C=C/c1cccc(F)c1)NC1CC1 [C, cinflumide, reference compound], which muscle relaxing activity [5] is on record?
A: most preferred effect

Q: What about the “length of time during which the inhibition occurs (inhibition time of the rigidity)” value ([2]; 10 mg/kg i.v.) of the same compound?
A: 8 min

Q: And the “length of time during which the inhibition action occurs (inhibition time of the rigidity)” value [4, 7]?
A: 0 min

Q: And the “length of time during which the inhibition action occurs (inhibition time of the rigidity)” value [4, 8]?
A: 3 min

Q: What about the “length of time during which the inhibition action occurs (inhibition time of the rigidity)” value [4, 9] of the same compound?
A: 0 min

Q: And the “inhibition rate (Straub tail reaction)” value (Straub tail reaction; [10])?
A: 0%

Q: And the “inhibition rate (Straub tail reaction)” value (Straub tail reaction; [11])?
A: 20%

Q: And the “inhibition rate (Straub tail reaction)” value (Straub tail reaction; [12])?
A: 80%

Q: What about the “inhibition rate (Straub tail reaction)” value (Straub tail reaction; [13]) of the same compound?
A: 100%

— patent US5116877A, “Pharmaceutical use for cinnamamide derivatives” (Taisho Pharmaceutical Co., Ltd., priority 1989, dated 1992)
